Source: publication PMC5938390, “Tachyplesin Causes Membrane Instability That Kills Multidrug-Resistant Bacteria by Inhibiting the 3-Ketoacyl Carrier Protein Reductase FabG” (Frontiers in Microbiology, 2018)
Positions of bridges follow the written chain, without caps; N, C: chain ends. Residues, ends and D or L forms follow the SMILES beside them.

How the values were obtained:
FabG from S. aureus = molecular target: T1, FabG from S. aureus (Staphylococcus aureus, UniProt P0A0H9); test: FabG enzyme activity inhibition assay (NADPH consumption, A340); type: biochemical; conditions: higher concentrations (7.5 and 15 μM) of peptide, 6 μM FabG, 5 min, room temperature
T1 construct: His tag (C); made in house; host or cells: E. coli BL21 DE3 (vector pET28a)
T1 sequence (P0A0H9 1-246): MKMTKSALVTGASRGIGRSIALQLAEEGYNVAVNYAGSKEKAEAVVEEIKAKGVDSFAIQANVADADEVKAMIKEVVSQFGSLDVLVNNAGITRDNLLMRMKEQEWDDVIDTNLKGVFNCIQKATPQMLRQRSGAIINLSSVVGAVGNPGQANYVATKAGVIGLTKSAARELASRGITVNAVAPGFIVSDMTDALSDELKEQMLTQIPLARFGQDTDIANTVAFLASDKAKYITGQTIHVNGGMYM
Description: A 96-well plate with a final total volume of 200 μl per reaction was used for the FabG inhibition assay. Briefly, tachyplesin III (15, 7.5, and 3.75 μM) was incubated with 1.5 μM FabG from E. coli or 6 μM FabG from S. aureus at room temperature for 5 min, before the addition of 300 μM nicotinamide adenine dinucleotide phosphate (NADPH, Sigma) and then 150 μM acetoacetyl-CoA (Sigma) to initiate the reaction. The decrease in absorbance at 340 nm was recorded over 5 min to reflect the consumption of NADPH.
FIGURE 7 Tachyplesin III binding with FabG inhibits its enzyme activities in vitro, probably by blocking the active site. Binding interactions between tachyplesin III and FabG from E. coli (A) or from S. aureus (E) were analyzed by surface plasmon resonance (SPR) with a Biocore 3000 (Biocore, Piscataway, NJ, United States). Black line: 1.25 μg/mL FabG; green line: 2.5 μg/mL FabG; purple line: 5 μg/mL FabG; and red line: 10 μg/mL FabG. […] Tachyplesin was processed with Chemdraw 11.0 according to the structure of tachyplesin I (PDB code 2RTV) and then docked to the active site of FabG from E. coli (PDB code 1Q7B) or S. aureus (PDB code 3SJ7) with AutoDock4 using the default settings. […] Statistical significance was analyzed by one-way ANOVA followed by the Newman–Keuls multiple-comparisons test, ^∗∗p < 0.01, ^∗p < 0.05.

A. baumannii 1408 [1] = test: MIC against MDR clinical isolate; type: cell-based, Acinetobacter baumannii
[2] = system: Escherichia coli strain DH5α; test: Stability in sterile deionized water, read out as MIC against DH5α; type: physicochemical; conditions: 37°C, 2 mg/ml, stability judged by MIC against DH5α
Description: (§1) These studies were carried out as we previously reported with slight modifications and briefly introduced as follows ([Liu et al., 2017]). […] Cytotoxicity in different cell lines was assessed using the Cell Proliferation Kit II (XTT) (Roche), and cytotoxicity in hemocytes was evaluated by the increase in the absorbance at 540 nm after peptide incubation. Membrane rupture was indicated by the entrance of the DNA-binding fluorescent dye PI into MDR clinical isolates of P. aeruginosa strain 1409. Membrane translocation of N-terminal FITC-conjugated tachyplesin III (purity ≥ 95%, synthesized by GL Biochem Co., Ltd, Shanghai, China) into MDR clinical isolates of Acinetobacter baumannii strain 1408 were detected by confocal laser-scanning microscopy.
Tachyplesin III (2 mg/ml) was incubated in either sterile deionized water or mouse serum at 37°C for various lengths of time, aliquots were taken, and MICs against DH5α cells were tested. Stability of the MIC indicates the stability of tachyplesin III.

K. pneumoniae 5 = test: Transcriptome analysis (RNA sequencing, FPKM, DESeq); type: cell-based, Klebsiella pneumoniae; conditions: Kp; Ta 16 μg/ml, 30 min, 37°C
Description: (§2) The Vitek 32 system (bioMerieux, France) and 16S rDNA sequencing were used to verify the clinical isolates A. baumannii 1408, P. aeruginosa 1409, Klebsiella pneumoniae 5 and E. coli 513, which were grown overnight in Luria-Bertani (LB) medium at 37°C with constant shaking at 220 rpm to reach the middle of their logarithmic growth phase. […] After the addition of 2 volumes of RNAprotect Bacteria Reagent (QIAGEN) to stabilized RNA, samples were vortexed for 5 s, incubated for 5 min at room temperature (15–25°C) and collected by centrifugation at 4°C for 5 min at 4000 g.
(§3) RNA isolation and sequencing were performed by Novogene Bioinformatics Technology Co., Ltd. (Beijing, China) as previously described ([Liu B. et al., 2014]). Clean reads were mapped to the corresponding bacterial genomes using Bowtie 2 software ([Langmead and Salzberg, 2012]). Gene expression was calculated using the FPKM (expected number of fragments per kilobase of transcript sequence per millions of base pairs sequenced) method with HTSeq software (union model) ([Anders et al., 2015]). Differentially expressed genes were selected based on the DESeq R package with Padj values < 0.05 ([Anders and Huber, 2010]). KEGG pathway analysis was performed using KOBAS (2.0), and the corrected p value cut-off was set at 0.05 ([Li et al., 2015]).

A. baumannii 1408 [3] = test: as above; type: cell-based, Acinetobacter baumannii; conditions: Ab; Ta 16 μg/ml, 30 min, 37°C
Description: as §2, §3

[4] = system: L929 (mouse fibroblast cell line); conditions: concentration increased from 50 mg/L to 100 mg/L, XTT
Description: as §1
(§4) Cytotoxicity of tachyplesin III was tested by hemolysis and cell viability assays. (A) Tachyplesin III dissolved in 0.9% saline was added to mouse erythrocytes that were diluted with the same buffer. After 30 min of incubation at 37°C and then centrifugation at 1000 g for 15 min, supernatants were diluted 1:4 with 0.9% saline, and absorbance at 540 nm was tested. With 1% Triton X-100 (v/v) to determine 100% hemolysis and 0.9% saline as the negative control, the hemolysis rate was calculated as [(Absorbancesample^-Absorbancecontrol)/(Absorbance100%^-Absorbancecontrol)] × 100. Cytotoxicity was assessed using the Cell Proliferation Kit II (XTT) (Roche) for (B) L929 (mouse fibroblast cell line), (C) 293FT (human embryonic kidney cell line) and (D) A549 (adenocarcinomic human alveolar basal epithelial cell line) cells. Absorbance [A492-A690 nm] was used to quantify viable cells.

[5] = system: 293FT (human embryonic kidney cell line); conditions: concentration increased from 100 mg/L to 200 mg/L, XTT
Description: as §1, §4

[6] = system: A549 (adenocarcinomic human alveolar basal epithelial cell line); conditions: concentration increased from 200 mg/L to 400 mg/L, XTT
Description: as §1, §4

SMILES: CC[C@H](C)[C@@H]1NC(=O)CNC(=O)[C@H](CCCNC(=N)N)NC(=O)[C@H](Cc2ccc(O)cc2)NC(=O)[C@@H]2CSSC[C@H](NC1=O)C(=O)N[C@@H](Cc1ccc(O)cc1)C(=O)N[C@@H](CCCNC(=N)N)C(=O)N[C@@H](CCCCN)C(=O)N[C@H](C(=O)N[C@@H](CCCNC(=N)N)C(N)=O)CSSC[C@H](NC(=O)[C@H](Cc1c[nH]c3ccccc13)NC(=O)[C@@H](N)CCCCN)C(=O)N[C@@H](Cc1ccccc1)C(=O)N[C@@H](CCCNC(=N)N)C(=O)N[C@@H](C(C)C)C(=O)N2 [tachyplesin III] (H-KWCFRVCYRGICYRKCR-NH2; disulfide 3-16, 7-12 (inferred); N-terminus and C-terminus assumed)
- FabG activity (FabG from S. aureus): almost completely blocked
- 16 μg/ml tachyplesin III expressed as multiple of MIC (A. baumannii 1408 [1]): 1 × MIC
- time stable in sterile deionized water [2]: ~48 h
- Fold change after Ta treatment, gene KPNJ2_01584 (Enoyl-CoA hydratase) (K. pneumoniae 5): 2
- Fold change after Ta treatment, gene KPNJ2_03426 (3-ketoacyl-acyl carrier protein reductase) (K. pneumoniae 5): 1.83
- Fold change after Ta treatment, gene A1S_2061 (3-ketoacyl-acyl carrier protein reductase) (A. baumannii 1408 [3]): 2.89
- cell viability [4]: declined sharply
- cell viability [5]: Dramatic decreases in viability
- cell viability [6]: Dramatic decreases in viability
